Data published in US11918645B2, “Vaccines against hepatitis B virus” (priority 2012, dated 2024).

Assays:
[1] = test system: PBMC from chronic HBV-infected subjects; assay: IFNγ ELISpot of PBMC restimulated with individual unconjugated HBV long peptides (Example 5); type: cell-based, human; settings: for T cell responses (IFNγ ELISpot), level and frequency of responders: HBeAg-negative inactive carriers and HBeAg-negative treated subjects, 5 μg/mL, 18 h, FIGS. 9 and 10; for T cell responses (IFNγ ELISpot) grouped by infecting HBV genotype: genotypes A, B, C & D, FIG. 11; for T cell responses (IFNγ ELISpot) grouped by ethnic background: three ethnic groups, FIG. 12
Description: One vial of PBMC from each subject (containing 1×10^7 cells) was thawed and lymphocyte numbers were determined using a Scepter™ automated handheld cell counter. PBMC were cultured in 2 mL culture medium (CM: RPMI-1640 Glutamax supplemented with 5% human AB serum) in 24 well cell culture plates at a concentration of 1×10^6 cells/mL for a total of 11 days. Cells were stimulated with a mixture of the nine HBV-derived long peptides described in Example 3.
Each peptide was used at a final concentration of 1 μg/peptide/mL. On Day 4, IL-2 and IL-15 were added to the cultures to final concentrations of 10 IU/mL and 10 ng/mL respectively. On Day 10, cells were washed twice in CM and cultured with 10 IU/mL IL-2 for 1 additional day. On Day 11, cells were washed twice in CM, counted and incorporated in a human IFNγ (interferon-gamma) ELISpot assay or intracellular cytokine staining.
Cells from short term cultures were plated in triplicate wells at 5×10^4 PBMC/well. Final antigen concentrations used were: 5 μg/mL for each individual peptides; PHA positive control: 1 μg/mL.

HLA-A*0201 = HLA-A*0201 (Homo sapiens, UniProt P04439, D140Y/D185E/D98H/E176V/E277Q/G131W/G231S/I119V/I121R/I166T/I218V/L300P/L318F/N151K/N90K/P208A/P217A/Q86G/Q94H/R138H/R169H/T345S); assay: ProImmune REVEAL MHC class I binding assay of nonamers; settings: score as % of positive control peptide
Source text: (§1) The number of HLA class I binding registers contained in each peptide may be determined by determining the ability of the peptide to bind to a range of frequently occurring HLA class I molecules. HLA class I binding may be measured using the ProImmune REVEAL® MHC-peptide Binding Assay (ProImmune Ltd, Oxford, UK). The REVEAL™ MHC peptide-binding assay measures the ability of each peptide to stabilize the ternary MHC-peptide complex for […], HLA-A*0201, HLA¬A*0301, HLA-A*2402, HLA-B*0702, HLA-B*0801, HLA-B*3501 representative of main HLA class I supertypes. Each tested peptide is given a score relative to a pass/fail control peptide and also compared to a positive control peptide.
(§2) Detection is based on the presence or absence of the native conformation of the MHC-peptide complex. The highly frequent HLA class I alleles (HLA-A*0201, A*0301, A*1101, A*2402, B*0702, B*0801, and B*3501) were selected. Binding to MHC molecules was compared to that of a known T-cell epitope, a positive control peptide, with very strong binding properties. […] The score of the test peptide is reported quantitatively as a percentage of the signal generated by the positive control peptide, and the peptide is indicated as having a putative pass or fail result. Good binders are considered to be those peptides with scores 45% of the positive control as defined by ProImmune.

HLA-A*0301 = biological target: T1, HLA-A*0301 (Homo sapiens, UniProt P04439); assay: as above; settings: score as % of positive control peptide
T1 construct: purchased ProImmune
Source text: as §1, §2

HLA-A*1101 = biological target: T2, HLA-A*1101 (Homo sapiens, UniProt P04439, A114D/D185E/E176A/F33Y/L180Q/S129P/T187R); assay: as above; settings: score as % of positive control peptide
T2 construct: purchased ProImmune
Source text: as §1, §2

HLA-A*2402 = HLA-A*2402 (Homo sapiens, UniProt P04439, D101N/D140Y/D185E/E176V/E190D/F33S/G103R/G107R/I119L/I121M/I306V/K335N/L105A/L180Q/L300P/N151K/N90K/Q86E/Q94H/R106L/R138H/R89G/T104I/T345S/V100E/W191G/Y123F); assay: as above; settings: score as % of positive control peptide
Source text: as §1, §2

HLA-B*0702 = biological target: T3, HLA-B*0702 (Homo sapiens, UniProt P01889); assay: as above; settings: score as % of positive control peptide
T3 construct: purchased ProImmune
Source text: as §1, §2

HLA-B*0801 = HLA-B*0801 (Homo sapiens, UniProt P01889, A93T/A95T/D138N/E176V/E187T/K202T/Q94N/R180D/S35A/V36M/Y33D/Y91F); assay: as above; settings: score as % of positive control peptide
Source text: as §1, §2

HLA-B*3501 = HLA-B*3501 (Homo sapiens, UniProt P01889, A329T/A93T/A95T/C349S/D201E/D98Y/E176V/E187L/E204Q/E69T/I218V/K202T/L119I/Q94N/R155S/R180L/S121R/S35A/S48A/T118I/V127L/V306I/V36M/Y140S/Y91F); assay: as above; settings: score as % of positive control peptide
Source text: as §1, §2

HLA class I alleles = assay: ProImmune REVEAL MHC class I binding assay, summary over the seven alleles; set-up: species or system human; settings: for Number of allele (b): number of class I alleles for which positive binding was detected; for Number of HLA binders (a): total number binding epitopes detected for each long peptide, seven class I alleles
Source text: as §1, §2

[2] = test system: HLA-DR1 (α1*01:01;β1*01:01); assay: ProImmune REVEAL MHC class II binding assay of long peptides; set-up: species or system human; settings: percentage of the signal of the positive control peptide; positive binding score >=15%
Source text: (§3) The highly frequent HLA class II alleles HLA-DR1 (α1*01:01;β1*01:01), HLA-DR15 (α1*01:01;β1*15:01), HLA-DR3 (α1*01:01;β1*03:01), HLA-DR4 (α1*01:01;β1*04:01), HLA-DR11 (α1*01:01;β1*11:01), HLA-DR13 (α1*01:01;β1*13:01), and HLA-DR7 (α1*01:01;β1*07:01) were selected. Each peptide was given a score relative to the positive control peptide, which is a known T-cell epitope. The score of the test peptide is reported quantitatively as a percentage of the signal generated by the positive control peptide, and the peptide is indicated as having a putative pass or fail result. Good binders are considered to be those peptides with scores >=15% of the positive control as defined by Proimmune.

[3] = test system: HLA-DR3 (α1*01:01;β1*03:0); assay: as above; set-up: species or system human; settings: percentage of the signal of the positive control peptide; positive binding score >=15%
Source text: as §3

[4] = biological target: T4, HLA-DR15 (α1*01:01;β1*15:01) (Homo sapiens, UniProt P01903+P01911); assay: as above; settings: percentage of the signal of the positive control peptide; positive binding score >=15%
T4 construct: purchased ProImmune
Source text: as §3

[5] = biological target: T5, HLA-DR7 (α1*01:01;β1*07:01) (Homo sapiens, UniProt P01903+P01911, A100R/A102G/A103Q/D57E/D86V/E43K/F76Y/K127E/L162R/M171V/P40G/Q125H/Q99D/R195Q/R33Q/R42Y/R54Q/S133A/S149N/S66F/T210M/V115G/Y107V/Y59L/Y89S); assay: as above; settings: percentage of the signal of the positive control peptide; positive binding score >=15%
T5 construct: purchased ProImmune
Source text: as §3

[6] = test system: HLA-DP4 (α1*01:03;β1*04:01); assay: as above; set-up: species or system human; settings: percentage of the signal of the positive control peptide; positive binding score >=15%
HLA class II alleles = assay: ProImmune REVEAL MHC class II binding assay, summary over the seven alleles; set-up: species or system human; settings: number of class II alleles for which positive binding (score >=15%) was detected
Source text: as §3

[7] = preparation of pool 22
[8] = biological target: T6, HLA-DR13 (α1*01:01;β1*13:01) (Homo sapiens, UniProt P01903+P01911, A100E/A169T/K41T/L162R/M171V/P40S/Q125H/Q178H/Q39Y/Q99D/R42S/S66N/W38E/Y61H); assay: ProImmune REVEAL MHC class II binding assay of long peptides; settings: percentage of the signal of the positive control peptide; positive binding score >=15%
T6 construct: purchased ProImmune
Source text: The highly frequent HLA class II alleles HLA-DR1 (α1*01:01;β1*01:01), HLA-DR15 (α1*01:01;β1*15:01), HLA-DR3 (α1*01:01;β1*03:01), HLA-DR4 (α1*01:01;β1*04:01), HLA-DR11 (α1*01:01;β1*11:01), HLA-DR13 (α1*01:01;β1*13:01), and HLA-DR7 (α1*01:01;β1*07:01) were selected. Each peptide was given a score relative to the positive control peptide, which is a known T-cell epitope.

T6 sequence (P01903 26-216, other chains not shown): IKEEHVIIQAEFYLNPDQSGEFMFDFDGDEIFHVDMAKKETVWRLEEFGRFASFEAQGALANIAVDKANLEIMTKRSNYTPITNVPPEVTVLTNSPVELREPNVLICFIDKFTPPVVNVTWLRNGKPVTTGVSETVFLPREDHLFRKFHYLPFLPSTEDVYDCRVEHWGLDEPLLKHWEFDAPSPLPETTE

Molecule	T cell responses (IFNγ ELISpot), level and frequency of responders [1]	T cell responses (IFNγ ELISpot) grouped by infecting HBV genotype [1]	T cell responses (IFNγ ELISpot) grouped by ethnic background [1]	Number of nonamers having a binding score >= 45%, HLA-A*0201 (HLA-A*0201)	Number of nonamers having a binding score >= 45%, HLA-A*0301 (HLA-A*0301)	Number of nonamers having a binding score >= 45%, HLA-A*1101 (HLA-A*1101)	Number of nonamers having a binding score >= 45%, HLA-A*2402 (HLA-A*2402)	Number of nonamers having a binding score >= 45%, HLA-B*0702 (HLA-B*0702)	Number of nonamers having a binding score >= 45%, HLA-B*0801 (HLA-B*0801)	Number of nonamers having a binding score >= 45%, HLA-B*3501 (HLA-B*3501)	Number of allele (b) (HLA class I alleles)	Number of HLA binders (a) (HLA class I alleles)	binding score, HLA-DR1 (α1*01:01;β1*01:01) [2] [%]	binding score, HLA-DR3 (α1*01:01;β1*03:0) [3] [%]	binding score, HLA-DR15 (α1*01:01;β1*15:01) [4] [%]	binding score, HLA-DR7 (α1*01:01;β1*07:01) [5] [%]	binding score, HLA-DP4 (α1*01:03;β1*04:01) [6] [%]	Number of allele (a) (HLA class II alleles)	dispersibility / solubility [7]	binding score, HLA-DR13 (α1*01:01;β1*13:01) [8] [%]
NP877: unconjugated HBV long peptide, core 860-890	highest level of responses in both patient populations and in the highest proportion of subjects	highest responses across all four genotypes A, B, C & D	highest responses across all three ethnic groups	2	0	0	2	1	1	0	4	6	0.24	5.58	0.09	2.78	0.04	1	–	–
CC[C@H](C)[C@H](NC(=O)[C@H](Cc1ccccc1)NC(=O)[C@H](CC(C)C)NC(=O)[C@H](Cc1ccccc1)NC(=O)[C@@H](NC(=O)[C@@H](NC(=O)[C@H](Cc1ccccc1)NC(=O)[C@H](CCCNC(=N)N)NC(=O)[C@H](CCCNC(=N)N)NC(=O)[C@@H](N)CC(C)C)[C@@H](C)CC)[C@@H](C)CC)C(=O)N[C@@H](CC(C)C)C(=O)N[C@@H](CC(C)C)C(=O)N[C@@H](CC(C)C)C(=O)N[C@@H](CS)C(=O)N[C@@H](CC(C)C)C(=O)N[C@H](C(=O)N[C@@H](Cc1ccccc1)C(=O)N[C@@H](CC(C)C)C(=O)N[C@@H](CC(C)C)C(=O)N[C@H](C(=O)O)C(C)C)[C@@H](C)CC [SEQ ID NO: 212]	–	–	–	–	–	–	–	–	–	–	–	–	–	–	–	–	–	–	could not be dispersed due to insolubility	–
CC[C@H](C)[C@H](NC(=O)[C@H](CC(C)C)NC(=O)[C@H](CS)NC(=O)[C@H](CC(C)C)NC(=O)[C@H](CC(C)C)NC(=O)[C@H](CC(C)C)NC(=O)[C@@H](NC(=O)[C@@H](N)Cc1ccccc1)[C@@H](C)CC)C(=O)N[C@@H](Cc1ccccc1)C(=O)N[C@@H](CC(C)C)C(=O)N[C@@H](CC(C)C)C(=O)N[C@H](C(=O)N[C@@H](CC(C)C)C(=O)N[C@@H](CC(C)C)C(=O)N[C@@H](CC(=O)O)C(=O)N[C@@H](Cc1ccc(O)cc1)C(=O)N[C@@H](CCC(N)=O)C(=O)NCC(=O)N[C@@H](CCSC)C(=O)N[C@@H](CC(C)C)C(=O)O)C(C)C [SEQ ID NO: 213]	–	–	–	–	–	–	–	–	–	–	–	–	–	–	–	–	–	–	could not be dispersed due to insolubility	–
NP856(K): unconjugated HBV long peptide, core 839-873 + KKK (LTFGRETVLEYLVSFGVWIRTPPAYRPPNAPILSTKKK; HBV CONSENSUS SEQUENCE)	highest level of responses in both patient populations and in the highest proportion of subjects	highest responses across all four genotypes A, B, C & D	highest responses across all three ethnic groups	4	0	0	4	2	1	0	4	11	2.33	0.13	5.71	0.40	10.72	0	–	0.00
